Test results from the NIST ThermoML archive (doi:10.1016/j.jct.2014.07.018).

Test: molar heat capacity at constant pressure
Details: 101.33 kPa, Vacuum adiabatic calorimetry

CCCCn1cc[n+](C)c1.[I-] [1-butyl-3-methylimidazolium iodide]
Details	molar heat capacity at constant pressure [J/K/mol]
168.81 K, Crystal	158.7
169.51 K, Crystal	159.1
170 K, Crystal	159.4
170 K, Glass	172.3
170.6 K, Glass	172.7
170.88 K, Crystal	159.9
171.57 K, Crystal	160.3
172.61 K, Glass	174
172.94 K, Crystal	161.1
173.64 K, Crystal	161.5
174.62 K, Glass	175.4
175.01 K, Crystal	162.3
175.71 K, Crystal	162.7
176.63 K, Glass	176.8
177.07 K, Crystal	163.5
177.77 K, Crystal	163.9
178.63 K, Glass	178.2
179.14 K, Crystal	164.8
179.83 K, Crystal	165.2
180 K, Crystal	165.3
180 K, Glass	179.1
180.64 K, Glass	179.6
181.2 K, Crystal	166.1
181.89 K, Crystal	166.6
182.64 K, Glass	181
183.26 K, Crystal	167.6
183.95 K, Crystal	168.1
184.64 K, Glass	182.6
185.31 K, Crystal	169.1
186 K, Crystal	169.6
186.65 K, Glass	184.1
187.36 K, Crystal	170.6
188.05 K, Crystal	171.1
188.65 K, Glass	185.7
189.41 K, Crystal	171.9
190 K, Crystal	172.3
190 K, Glass	186.7
190.1 K, Crystal	172.4
190.65 K, Glass	187.2
191.46 K, Crystal	173.3
192.15 K, Crystal	173.7
192.65 K, Glass	188.9
193.51 K, Crystal	174.5
194.2 K, Crystal	174.9
194.65 K, Glass	191
195.56 K, Crystal	175.7
196.24 K, Crystal	176.1
196.66 K, Glass	193
197.6 K, Crystal	176.9
198.29 K, Crystal	177.3
198.66 K, Glass	195.4
199.65 K, Crystal	178.1
200 K, Crystal	178.3
200 K, Glass	197.5
200.33 K, Crystal	178.5
200.66 K, Glass	198.5
201.69 K, Crystal	179.3
202.37 K, Crystal	179.8
202.93 K, Glass	204.1
203.73 K, Crystal	180.5
204.41 K, Crystal	180.9
205.45 K, Glass	214.4
205.77 K, Crystal	181.8
206.45 K, Crystal	182.2
207.77 K, Liquid	247.8
207.8 K, Crystal	183
208.48 K, Crystal	183.4
209.84 K, Crystal	184.3
209.86 K, Liquid	287.7
210 K, Crystal	184.3
210 K, Liquid	287.6
